Consider one compound from paper PMC8836295, “Essential role of pyrophosphate homeostasis mediated by the pyrophosphate-dependent phosphofructokinase in Toxoplasma gondii” (PLoS Pathogens, 2022).

This experiment has as its target T1, PFK2-N (Toxoplasma gondii, UniProt A0A125YKV6).
T1 construct: gene PFKII; N-terminal phosphofructokinase domain, residues 1-595; recombinant, E. coli Transetta (DE3), plasmid pESUMO-PFK2N (His-SUMO vector), Ni2+ column
T1 sequence (A0A125YKV6 1-595): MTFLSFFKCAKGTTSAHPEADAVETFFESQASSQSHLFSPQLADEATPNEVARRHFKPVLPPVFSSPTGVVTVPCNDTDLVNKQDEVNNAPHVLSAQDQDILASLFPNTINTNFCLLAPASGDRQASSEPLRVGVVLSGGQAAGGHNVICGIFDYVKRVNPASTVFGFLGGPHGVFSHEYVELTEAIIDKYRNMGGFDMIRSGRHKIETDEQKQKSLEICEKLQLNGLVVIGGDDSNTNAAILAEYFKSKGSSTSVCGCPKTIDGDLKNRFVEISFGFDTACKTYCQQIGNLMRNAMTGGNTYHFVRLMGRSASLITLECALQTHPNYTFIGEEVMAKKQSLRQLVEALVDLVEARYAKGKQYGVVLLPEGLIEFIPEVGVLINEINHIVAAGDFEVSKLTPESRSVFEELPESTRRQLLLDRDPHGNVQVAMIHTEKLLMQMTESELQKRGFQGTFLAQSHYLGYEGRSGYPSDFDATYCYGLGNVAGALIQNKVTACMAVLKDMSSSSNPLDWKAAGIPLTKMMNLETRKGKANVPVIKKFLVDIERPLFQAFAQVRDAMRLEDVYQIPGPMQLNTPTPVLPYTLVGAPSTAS
Kind of experiment: NADH-coupled OD340 assay (PFP activity kit). The format is biochemical. The following applies: co-substrate F6P 4 mM.

For `O=P(O)(O)OP(=O)(O)O` [PPi], the “NADH-coupled OD340 assay (PFP activity kit)” value is “individually purified and assayed for the PPi dependent PFK activity”.
